Results published in patent US20080293772A1, “SALTS OF PICOTAMIDE” (priority 2007, published 2008).
Where a name gives a salt, the structure may show the parent alone. Read-outs that look alike come from different tables or passages of the source.

Experiments:
[1] = Picotamide salt stability, degradation determined by HPLC
Protocol: If a spontaneous crystallization occurs after the salt formation, the solid is isolated by filtration.
Column: Phenomenex Hypersil C18-BDS, 4.6×150 mm, 5 μm, flow 1 ml/min, 25° C., detection at 254 nm. Ammonium acetate buffer 10 mM, pH 9, containing 15% methanol. After 17 min, the percentage of methanol is increased to 80%. The sample is dissolved in methanol/water 1:1.
Salts were formed in THF.

[2] = Picotamide stability under acidic conditions (HPLC content); type: physicochemical; conditions: hydrochloric acid 1 M, three days
Protocol: The sample is dissolved in methanol/water 1:1.
Picotamide is dissolved in hydrochloric acid 1 M and stored at room temperature and 50° C. for three days.

[3] = man, after oral administration; cited from earlier work

Compound | Degradation [1] [%] | Degradation ([1]; salts formed in THF, HPLC) [%] | further results
COc1ccc(C(=O)NCc2cccnc2)cc1C(=O)NCc1cccnc1 [Picotamide, N,N′-bis-(3-picolyl)-4-methoxyisophthalamide] |  |  | picotamide content ([2]; 50° C.): 98.1%; picotamide content ([2]; room temperature): 99.2%
COc1ccc(C(=O)NCc2cccnc2)cc1C(=O)NCc1cccnc1 [anhydrous picotamide] |  |  | time needed to reach the maximum inhibitory effect [3]: 8 h
citrate |  | 0.2 | 
fumarate |  | 6.7 | 
maleate |  | 11.5 | 
oxalate |  | 0.4 | 
tartrate [reference compound] |  | 0.1 | 

Further lines, with some results ahead:

Degradation [1] [%] | Compound | Degradation ([1]; salts formed in THF, HPLC) [%] | further results
0.6 | CC(=O)O [Acetate] |  | 
35 | Br [hydrobromide] |  | 
0.0 | COc1ccc(C(=O)NCc2cccnc2)cc1C(=O)NCc1cccnc1 [hydrochloride (anhydrous)] |  | 
0.6 | COc1ccc(C(=O)NCc2cccnc2)cc1C(=O)NCc1cccnc1 [hydrochloride] |  | 
0.1 | O=S(=O)(O)O [sulfate] |  | 
